# Biological target: T1, NUE (CT737), GST-NUE (Chlamydia trachomatis, UniProt O84742)
# T1 construct: gene CT_737
# Settings: core histones or recombinant H2B, H3, H4 as acceptor, also automethylation; 50 mM Tris pH 8, 20 mM KCl, 10 mM MgCl2, 1 mM DTT, 30 °C, 1 h; labelled compound
# T1 sequence (O84742 entry or part of it): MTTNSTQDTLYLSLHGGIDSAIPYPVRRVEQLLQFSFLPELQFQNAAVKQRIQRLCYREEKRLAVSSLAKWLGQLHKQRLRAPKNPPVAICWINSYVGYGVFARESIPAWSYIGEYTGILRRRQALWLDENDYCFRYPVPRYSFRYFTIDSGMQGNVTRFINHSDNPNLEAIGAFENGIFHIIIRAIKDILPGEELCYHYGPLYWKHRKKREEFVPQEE
structure (smiles),measurement,value
"C[S+](CC[C@H](N)C(=O)O)C[C@H]1O[C@@H](n2cnc3c(N)ncnc32)[C@H](O)[C@@H]1O (stereo partly drawn) [SAM, S-adenosyl-L-methionine]","in vitro methyltransferase assay, 14C autoradiography of SDS-PAGE",in vitro methyltransferase assays using GST-NUE purified from E. coli and mammalian histones
